Reference: paper PMC10058310 (Science Advances, 2023)

What was measured:
[1] = system: recombinant SARS2 encoding WT M^pro; assay: microbe, parasite or virus in culture; assay type: cell-based; conditions: A549-hACE2 cells; for IC50: Severe acute respiratory syndrome coronavirus 2, replication-competent SARS-CoV-2, M^pro WT, 72 hpi, read-out: IC50 (95% CI)
[2] = system: recombinant SARS2 encoding ∆P168 M^pro; assay: microbe, parasite or virus in culture; assay type: cell-based; conditions: Severe acute respiratory syndrome coronavirus 2; read-out: IC50 (95% CI)
[3] = target: SARS2 M^pro ∆P168 (Severe acute respiratory syndrome coronavirus 2, UniProt P0DTD1, DEL3431-3431); assay type: cell-based, SARS-CoV-2

Row | Compound | IC50 [1] [nM] | IC50 [2] [nM] | Fold change in antiviral EC50 ([1]; M^pro WT virus (reference)) [fold] | effect on dose-response curve versus WT M^pro [3]
1 | Cn1cnc(Cn2c(=O)[nH]/c(=N\c3cc4cn(C)nc4cc3Cl)n(Cc3cc(F)c(F)cc3F)c2=O)n1 [Ensitrelvir, ensitrelvir] | 4.3 | 3.6 | – | –
2 | CC(C)(C)[C@H](NC(=O)C(F)(F)F)C(=O)N1C[C@H]2[C@@H]([C@H]1C(=O)N[C@H](C#N)C[C@@H]1CCNC1=O)C2(C)C [Nirmatrelvir, nirmatrelvir] | 4.4 | 7 | – | –
3 | CCC(CC)COC(=O)[C@H](C)N[P@](=O)(OC[C@H]1O[C@@](C#N)(c2ccc3c(N)ncnn23)[C@H](O)[C@@H]1O)Oc1ccccc1 [Remdesivir, remdesivir] | 1200 | 1100 | 1.0 | –
4 | CC(C)(C)NC(=O)N[C@H](C(=O)N1C[C@H]2[C@@H]([C@H]1C(=O)NC(CC1CCC1)C(=O)C(N)=O)C2(C)C)C(C)(C)C (some centres unmarked) [boceprevir] | – | – | – | no detectable effect
